Test results published in PMC11571015, “Hybrids of Membrane-Translocating Antimicrobial Peptides Show Enhanced Activity through Membrane Permeabilization” (ACS Medicinal Chemistry Letters, 2024).
In brackets after ≈: the same amount, converted by molar mass.

Columns and labels:
E. coli = assay type: cell-based, E. coli (Top10 Strain); settings: median MIC; microbroth dilution, 1:2 serial dilution 18.2 to 1.8x10-2 μM, 4 × 10^6 CFU/mL, 1 h 37°C in wash buffer pH 7.4, then TSB overnight (18-24 h), OD600; triplicate per plate; mixture: each peptide at the reported concentration
Protocol: (§1) Supplemental Information for Trevellin et al.
(§2) Peptide design and preparation […]
(§3) synthesized by GenScript (Piscataway, NJ) at >95% purity determined by HPLC and dissolved in DI water. Concentrations were measured by triplicate tryptophan absorbance readings at 280 nm (ε=5700 M–1cm–1, l=1 cm) using a ThermoScientific NanoDrop 2000 (Waltham, MA). Buforin II (BF2) included an F10W mutation used in many previous studies1-5 to allow for concentration measurements.
(§4) Bacteria included E. coli (Top10 Strain, Invitrogen/ThermoFisher) containing a plasmid for ampicillin resistance (Novagen) and/or B. subtilis (ATCC #6051). Bacterial growth was performed in TSB (trypticase soy broth) prepared at 3% w/v (30 g of media in 1 L) from BD Difco unless otherwise noted. Overnight cultures were picked from petri dishes or frozen stock and grown for 14-16 hours at 37 °C in TSB with shaking. E. coli overnight cultures were incubated with 25 μg/mL ampicillin. The overnight cultures were then diluted 1:100 in 25 mL TSB and incubated at 37 °C with shaking for 2.5 h. The culture was pelleted via centrifugation at 1500×g for 10 min at room temperature and resuspended in sterile cold wash buffer (10 mM sodium phosphate buffer and 10 mM sodium chloride, pH 7.4). These resuspended bacteria were then used for radial diffusion, microbroth dilution, and propidium iodide assays. […]
(§5) Microbroth dilution assay
(§6) Microbroth dilution assays were used to determine the minimum inhibitory concentration (MIC) of each peptide for E. coli and B. subtilis (ATCC #6051). A 1:2 serial dilution was prepared for a peptide across the top row of a 96-well plate. 100 μL of bacterial suspension (4 × 10^6 CFU/mL, diluted in sterile wash buffer, 10 mM sodium phosphate buffer and 10 mM sodium chloride, pH 7.4) and 10 μL of peptide were mixed to each well in subsequent rows of the plate. The 11 effective peptide concentrations ranged from 18.2 μM to 1.8x10-2 μM, with DI water used as a control, and each concentration was tested in triplicate per plate. After the bacteria and peptide mixtures were incubated in plates at 37°C for 1 hour, 100 μL of 6% w/v TSB was added to each well. For wells containing E. coli, ampicillin was added at a final concentration of 25 µg/ml. The plate was then incubated overnight (18-24 h) at 37°C. After incubation, OD600nm were measured using the SpectraMax M3 microplate reader (Molecular Devices). […]
(§7) relative permeability = F5/F0
(§8) Each peptide was tested with bacteria grown from at least three distinct overnight […]
(§9) The MTS assay is a colorimetric viability assay for mammalian cells. HEK 293 cells (ATCC CRL-1573) were grown in complete growth medium (EMEM, 10% fetal bovine serum, 1% penicillin-streptomycin). Cells were cultured in a T-75 maintenance flask, fed with fresh media every 1-2 days, and passaged approximately every 5-7 days once cells reached 70-90% confluence. During passaging, HEK 293 cells were plated in a 96-well plate at 20,000 cells/well and incubated for 4-6 hours (37 °C, 95% humidity, 5% CO2). Each column of cells (8 replicates) was then incubated overnight with 18.2 µM peptide or a control. After incubation, media was aspirated and refreshed for each well, […]

B. subtilis = assay type: cell-based, B. subtilis (ATCC #6051); settings: 1 h, pH 7.4
Protocol: as §1, §2, §3, §4, §5, §6, §7, §8, §9

CC[C@H](C)[C@H](NC(=O)[C@H](CCCNC(=N)N)NC(=O)[C@@H](NC(=O)[C@H](CCCCN)NC(=O)[C@H](CCCCN)NC(=O)[C@H](CC(N)=O)NC(=O)[C@H](CC(=O)O)NC(=O)[C@H](CCCNC(=N)N)NC(=O)[C@H](C)NC(=O)[C@H](C)NC(=O)[C@H](CCCCN)NC(=O)[C@H](CCCNC(=N)N)NC(=O)[C@H](CC(C)C)NC(=O)[C@H](CC(C)C)NC(=O)[C@H](CCCNC(=N)N)NC(=O)[C@H](Cc1c[nH]cn1)NC(=O)[C@@H](NC(=O)[C@H](CCCNC(=N)N)NC(=O)CNC(=O)[C@@H](NC(=O)[C@@H]1CCCN1C(=O)[C@H](Cc1c[nH]c2ccccc12)NC(=O)[C@H](CCC(N)=O)NC(=O)[C@H](CC(C)C)NC(=O)CNC(=O)[C@H](C)NC(=O)[C@H](CCCNC(=N)N)NC(=O)[C@H](CO)NC(=O)[C@H](CO)NC(=O)[C@H](CCCNC(=N)N)NC(=O)[C@@H](N)[C@@H](C)O)C(C)C)C(C)C)[C@@H](C)O)C(=O)N[C@@H](Cc1c[nH]c2ccccc12)C(=O)N1CCC[C@H]1C(=O)N[C@@H](CCCNC(=N)N)C(=O)N[C@@H](Cc1c[nH]cn1)C(=O)N[C@@H](CC(C)C)C(=O)N[C@@H](CCC(N)=O)C(=O)N[C@@H](CC(C)C)C(=O)N[C@@H](C)C(=O)N[C@H](C(=O)N[C@@H](CCCNC(=N)N)C(=O)N[C@@H](CC(N)=O)C(=O)O)C(C)C [BF2-A-DesHDAP1 (BAD)]
MIC against E. coli (E. coli): 1.1 µM (≈ 5.5 µg/mL)
MIC against B. subtilis (B. subtilis): 4.6 µM (≈ 23 µg/mL)

CC[C@H](C)[C@H](NC(=O)[C@H](CCCNC(=N)N)NC(=O)[C@@H](NC(=O)[C@H](CCCCN)NC(=O)[C@H](CCCCN)NC(=O)[C@H](CC(N)=O)NC(=O)[C@H](CC(=O)O)NC(=O)[C@H](CCCNC(=N)N)NC(=O)[C@H](C)NC(=O)[C@H](CCCCN)NC(=O)[C@H](CCCNC(=N)N)NC(=O)[C@H](CC(C)C)NC(=O)[C@H](CC(C)C)NC(=O)[C@H](CCCNC(=N)N)NC(=O)[C@H](Cc1c[nH]cn1)NC(=O)[C@@H](NC(=O)[C@H](CCCNC(=N)N)NC(=O)CNC(=O)[C@@H](NC(=O)[C@@H]1CCCN1C(=O)[C@H](Cc1c[nH]c2ccccc12)NC(=O)[C@H](CCC(N)=O)NC(=O)[C@H](CC(C)C)NC(=O)CNC(=O)[C@H](C)NC(=O)[C@H](CCCNC(=N)N)NC(=O)[C@H](CO)NC(=O)[C@H](CO)NC(=O)[C@H](CCCNC(=N)N)NC(=O)[C@@H](N)[C@@H](C)O)C(C)C)C(C)C)[C@@H](C)O)C(=O)N[C@@H](Cc1c[nH]c2ccccc12)C(=O)N1CCC[C@H]1C(=O)N[C@@H](CCCNC(=N)N)C(=O)N[C@@H](Cc1c[nH]cn1)C(=O)N[C@@H](CC(C)C)C(=O)N[C@@H](CCC(N)=O)C(=O)N[C@@H](CC(C)C)C(=O)N[C@@H](C)C(=O)N[C@H](C(=O)N[C@@H](CCCNC(=N)N)C(=O)N[C@@H](CC(N)=O)C(=O)O)C(C)C [BF2-DesHDAP1 (BD)]
MIC against E. coli (E. coli): 1.1 µM (≈ 5.42 µg/mL)
MIC against B. subtilis (B. subtilis): 4.6 µM (≈ 22.7 µg/mL)

CC[C@H](C)[C@H](NC(=O)[C@H](CCCNC(=N)N)NC(=O)[C@@H](NC(=O)[C@H](CCCCN)NC(=O)[C@H](CCCCN)NC(=O)[C@H](CC(N)=O)NC(=O)[C@H](CC(=O)O)NC(=O)[C@H](CCCNC(=N)N)NC(=O)[C@H](C)NC(=O)[C@@H]1CCCN1C(=O)[C@H](CCCCN)NC(=O)[C@H](CCCNC(=N)N)NC(=O)[C@H](CC(C)C)NC(=O)[C@H](CC(C)C)NC(=O)[C@H](CCCNC(=N)N)NC(=O)[C@H](Cc1c[nH]cn1)NC(=O)[C@@H](NC(=O)[C@H](CCCNC(=N)N)NC(=O)CNC(=O)[C@@H](NC(=O)[C@@H]1CCCN1C(=O)[C@H](Cc1c[nH]c2ccccc12)NC(=O)[C@H](CCC(N)=O)NC(=O)[C@H](CC(C)C)NC(=O)CNC(=O)[C@H](C)NC(=O)[C@H](CCCNC(=N)N)NC(=O)[C@H](CO)NC(=O)[C@H](CO)NC(=O)[C@H](CCCNC(=N)N)NC(=O)[C@@H](N)[C@@H](C)O)C(C)C)C(C)C)[C@@H](C)O)C(=O)N[C@@H](Cc1c[nH]c2ccccc12)C(=O)N1CCC[C@H]1C(=O)N[C@@H](CCCNC(=N)N)C(=O)N[C@@H](Cc1c[nH]cn1)C(=O)N[C@@H](CC(C)C)C(=O)N[C@@H](CCC(N)=O)C(=O)N[C@@H](CC(C)C)C(=O)N[C@@H](C)C(=O)N[C@H](C(=O)N[C@@H](CCCNC(=N)N)C(=O)N[C@@H](CC(N)=O)C(=O)O)C(C)C [BF2-P-DesHDAP1 (BPD)]
MIC against E. coli (E. coli): 1.1 µM (≈ 5.53 µg/mL)
MIC against B. subtilis (B. subtilis): 4.6 µM (≈ 23.1 µg/mL)

CC(C)C[C@H](NC(=O)CNC(=O)[C@H](C)NC(=O)[C@H](CCCNC(=N)N)NC(=O)[C@H](CO)NC(=O)[C@H](CO)NC(=O)[C@H](CCCNC(=N)N)NC(=O)[C@@H](N)[C@@H](C)O)C(=O)N[C@@H](CCC(N)=O)C(=O)N[C@@H](Cc1c[nH]c2ccccc12)C(=O)N1CCC[C@H]1C(=O)N[C@H](C(=O)NCC(=O)N[C@@H](CCCNC(=N)N)C(=O)N[C@H](C(=O)N[C@@H](Cc1c[nH]cn1)C(=O)N[C@@H](CCCNC(=N)N)C(=O)N[C@@H](CC(C)C)C(=O)N[C@@H](CC(C)C)C(=O)N[C@@H](CCCNC(=N)N)C(=O)N[C@@H](CCCCN)C(=O)O)C(C)C)C(C)C [Buforin II (BF2), reference compound]
MIC against E. coli (E. coli): >18.2 µM

CC[C@H](C)[C@H](NC(=O)[C@H](CCCNC(=N)N)NC(=O)[C@@H](NC(=O)[C@H](CCCCN)NC(=O)[C@H](CCCCN)NC(=O)[C@H](CC(N)=O)NC(=O)[C@H](CC(=O)O)NC(=O)[C@H](CCCNC(=N)N)NC(=O)[C@H](C)N)[C@@H](C)O)C(=O)N[C@@H](Cc1c[nH]c2ccccc12)C(=O)N1CCC[C@H]1C(=O)N[C@@H](CCCNC(=N)N)C(=O)N[C@@H](Cc1c[nH]cn1)C(=O)N[C@@H](CC(C)C)C(=O)N[C@@H](CCC(N)=O)C(=O)N[C@@H](CC(C)C)C(=O)N[C@@H](C)C(=O)N[C@H](C(=O)N[C@@H](CCCNC(=N)N)C(=O)N[C@@H](CC(N)=O)C(=O)N[C@@H](C)C(=O)N[C@H](C(=O)N[C@@H](CCCNC(=N)N)C(=O)N[C@@H](CO)C(=O)N[C@@H](CO)C(=O)N[C@@H](CCCNC(=N)N)C(=O)N[C@@H](C)C(=O)NCC(=O)N[C@@H](CC(C)C)C(=O)N[C@@H](CCC(N)=O)C(=O)N[C@@H](Cc1c[nH]c2ccccc12)C(=O)N1CCC[C@H]1C(=O)N[C@H](C(=O)NCC(=O)N[C@@H](CCCNC(=N)N)C(=O)N[C@H](C(=O)N[C@@H](Cc1c[nH]cn1)C(=O)N[C@@H](CCCNC(=N)N)C(=O)N[C@@H](CC(C)C)C(=O)N[C@@H](CC(C)C)C(=O)N[C@@H](CCCNC(=N)N)C(=O)N[C@@H](CCCCN)C(=O)O)C(C)C)C(C)C)[C@@H](C)O)C(C)C [DesHDAP1-A-BF2 (DAB)]
MIC against E. coli (E. coli): 1.1 µM (≈ 5.5 µg/mL)
MIC against B. subtilis (B. subtilis): 4.6 µM (≈ 23 µg/mL)
